This test concerns monoclonal anti-23F antibody. The test can be described thus: BLI affinity of rhamnose probes for monoclonal anti-23F. The format is binding, human. Particulars: for koff: dissociation in 100 mM L-rhamnose; for anti-23F recognition of glycoside variant: 125 nM anti-23F association. The text has this: Figure 1 Affinity determination of endogenous and monoclonal antibody sources for L-rhamnose glycoside variants. A. Chemical structures of rhamnose affinity probes. B/C. Approximation of antirhamnose antibody binding affinity for probes 1–3 using biolayer interferometry. B. Purified human serum IgG is used to estimate the affinity of endogenous polyclonal serum antirhamnose antibodies for each affinity probe 1–3. C. Monoclonal anti-23F antibody is used to estimate the potential affinity of vaccine-induced antirhamnose antibodies for each affinity probe 1–3. […] Association was monitored for 900 (B) or 600 (C) seconds. The loaded biosensor probe was then dipped into a dissociation solution of 100 mM L-rhamnose for 600 s. Association curves were fit to a two-phase association model in GraphPad Prism using Kfast to calculate kon. Dissociation curves were similarly fit to a two-phase decay using Kfast to calculate koff. TEXT PRINTED IN THE PICTURE: (B) no label printed: Polyclonal Human IgG: Kd ≈ 7 x10^-5 M | (C) no label printed: Monoclonal Anti-23F: Kd ≈ 6 x10^-6 M DOUBTS OF THE COPYIST ABOUT THIS PICTURE: Panel B, Kd ≈ 7 x10^-5 M: printed once in the plot with no link to a single curve, so it is unclear which of (1) α–O, (2) α–S and (3) β–S it applies to / Panel C, Kd ≈ 6 x10^-6 M: printed once in the plot with no link to a single curve, so it is unclear which of (1) α–O, (2) α–S and (3) β–S it applies to […]
The advancement of synthetic immunotherapeutic modalities targeting anti-rhamnose antibodies has been complicated by a lack of model monoclonal antibody to enable medicinal chemistry optimization. Previous studies relied on polyclonal antirhamnose sources (e.g., human/rabbit serum) for validation studies. We hypothesized that antibodies induced by vaccination against the 23F serotype of streptococcus pneumonia (which contains α-rhamnose) would serve as a source of novel monoclonal antibodies. FDA-approved vaccines (such as PPV23) can induce anti-23F antibodies, with patient-derived monoclonal anti-23F antibody sequences commercially available.[22]−[24] We proceeded to study anti-23F in BLI assays as done in Figure 1B (Figure 1C, association phase = 125 nM anti-23F). […] Furthermore, given the efficient recognition of α-rhamnose by both endogenous human polyclonal and monoclonal antirhamnose sources, it was selected as the ABD for subsequent cARM development.
General Notes and Materials […]
Biolayer Interferometry (BLI) General notes and Materials
IgG from human serum was purchased from Innovative Research (IHUI GGAP1000MG). Anti -23F antibody was purchased fr om Creative Biolabs (PABX -173). Biolayer Interferometry (BLI) was conducted using a ForteBio Octet Red96, and streptavidin biosensors (Sartorius - 18-5019) or ProG biosensors (Sartorius – 18-5082). For quench, a 5% skim milk (Nestle Carnation Instant Skim Milk) solution in 1X kinetics buffer was used. The instrument was set at 25 °C, with 1000 RPM, and acquisition rate of 5 Hz.
Each well of a black well plate (Greiner Bio -One - 655086) was filled with 200 µL of appropriate solution.
Dissociation buffer was comprised of L-rhamnose (100 mM, Sigma Aldrich – R3875-10G) in 1X kinetics buffer to reduce avidity contribution to dissociation rate (koff).
SDS-PAGE General notes and Materials […]
Carboxyfluorescein was purchased from Sigma Aldrich (21877 -5G-F). IgG from human serum was purchased from Innovative Research (IHUIGGAP1000MG). Anti -23F antibody was purchased from Creative Biolabs (PABX -173). Laemellie Buffer (2x) was purchased from Sigma Aldrich (S3401 -10VL).
Pre-cast Tris-Glycine Gels (4-20%) were purchased from Fisher Scientific (XP04202BOX). […]
A647-alkyne was purchased from Broadpharm (BP-28217). Gels were stained using Coomassie Stain from Bio Rad (1610786), and subsequently imaged using an Odyssey CLX imager. Gels were run at 90V for 15 minutes, followed by […]
ADCC Reporter Assay General notes and Materials […]

Where [1] appears, read: average of three anti-23F concentrations, read-out: Avg Kd.

Read-outs that look alike come from different tables or passages of the source.

For orientation: kon means the second-order rate constant of association. By koff is commonly meant a measure of how fast the partners let go of each other. Usually Kd stands for the free concentration of one partner at which half of the binding sites on the other are occupied at equilibrium, for simple one-to-one binding. As to `C[C@@H]1O[C@@H](OCc2cn(CCOCCNC(=O)OCCOCCOCCOCCOCCOCCOCCOCCNC(=O)CCCC[C@@H]3SC[C@@H]4NC(=O)N[C@@H]43)nn2)[C@H](O)[C@H](O)[C@H]1O` [compound 1], the “anti-23F recognition of glycoside variant” value was “uniquely specific for α-glycoside variants”. Where the note is “125 nM Anti-23F”, this compound gave a kon of 1.1e+06 M⁻¹ s⁻¹ and a koff of 5.591 s⁻¹. The Kd (125 nM Anti-23F, read-out: Kd) was 5.2 µM. Besides, where the note is “250 nM Anti-23F”, the kon was found to be 920000 M⁻¹ s⁻¹ and the koff stood at 5.773 s⁻¹. Moreover, where the note is “250 nM Anti-23F, read-out: Kd”, the Kd was 6.2 µM. Under “500 nM Anti-23F”, this compound showed a kon of 630000 M⁻¹ s⁻¹ and an off-rate constant (koff) of 4.673 s⁻¹. The Kd (500 nM Anti-23F, read-out: Kd) was found to be 7.4 µM. The Kd under setting [1] is 6.3 ± 1.1 µM.

With `C[C@@H]1O[C@@H](SCc2cn(CCOCCNC(=O)OCCOCCOCCOCCOCCOCCOCCOCCNC(=O)CCCC[C@@H]3SC[C@@H]4NC(=O)N[C@@H]43)nn2)[C@H](O)[C@H](O)[C@H]1O` [compound 2], the “anti-23F recognition of glycoside variant” value is “uniquely specific for α-glycoside variants”. For the same compound, for the setting “125 nM Anti-23F”, the kon turned out to be 770000 M⁻¹ s⁻¹ and the koff is 4.018 s⁻¹. Besides, the Kd (125 nM Anti-23F, read-out: Kd) was 5.2 µM. In addition, for the setting “250 nM Anti-23F”, the kon turned out to be 730000 M⁻¹ s⁻¹ and the koff was 4.378 s⁻¹. Moreover, the Kd (250 nM Anti-23F, read-out: Kd) came out at 6 µM. For the setting “500 nM Anti-23F”, this compound gave a kon of 560000 M⁻¹ s⁻¹ and a koff of 3.509 s⁻¹. Also, the Kd (500 nM Anti-23F, read-out: Kd) came out at 6.2 µM. In addition, under setting [1], the Kd was determined as 5.8 ± 0.5 µM.

The values above are taken from PMC10683482, “Offsetting Low-Affinity Carbohydrate Binding with Covalency to Engage Sugar-Specific Proteins for Tumor-Immune Proximity Induction” (ACS Central Science, 2023).
